Data as given in patent US7947854B2, “Bis-cationic compounds and use thereof” (The University of Sydney, priority 2003, dated 2011).
Read-outs that look alike come from different tables or passages of the source. Marks after values point to notes of the source that are not given here.

What was measured:
[1] = test system: secreted phospholipase B (PLB activity); test: Radiometric assay, secreted PLB activity; type: biochemical, Cryptococcus neoformans H99; conditions: for PLB, percentage inhibition of activity: Secretory Cryptococcal H99 Phospholipase; for % Inhibition PLB, Secretory Enzyme: pH 4
How it was run: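 Secreted enzyme was taken from cell-free supernatant of Cryptococcus isolate H99 cells incubated 24 h at 37° C. Reactions at 37° C, pH 4.0 imidazole acetate, used 800 μM DPPC with [14C]-dipalmitoyl PC and 1 μg protein for 22 min. PLB was measured as radiolabelled PC loss by TLC, with inhibition expressed versus inhibitor-free control; compounds were tested at 25 and 250 μM, then 2.5 and 0.25 μM.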

[2] = test system: Cryptococcus neoformans ATCC 90112; test: Antifungal susceptibility testing, microdilution MIC; type: cell-based; conditions: Cryptococcus neoformans, ATCC90112
How it was run: (§1)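 Standard microdilution method, run in duplicate, using serial dilutions of cationic compounds.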

[3] = test system: Candida albicans ATCC 10231; test: as above; type: cell-based; conditions: Candida albicans, ATCC10231
How it was run: as §1

erythrocyte = type: cell-based; conditions: 37° C., 1 h
Procedure: Human blood was collected in 10 mL Vacutainer tubes containing potassium-EDTA as anticoagulant. The blood from each vacutainer was transferred to a 50 mL centrifuge tube and the cells washed three times with calcium- and magnesium-free phosphate buffered saline (PBS) (Gibco) by centrifugation at 2000×g for 15 min. The third supernatant was clear and colourless. Cells were stored in PBS for up to two weeks. The cell suspension in PBS (0.5 mL) was mixed with a stock solution of test substance (0.5 mL) at the appropriate concentration (final erythrocyte concentration of approx. 0.5×10^9 per mL). The mixtures were incubated at 37° C. for 1 h with gentle shaking, then centrifuged at 2000×g for 10 min. The supernatant was diluted 10-fold with PBS and the optical density measured at 540 nm. The values for 0% and 100% lysis were determined by incubating cells with PBS or 0.1% Triton X-100 (in water), respectively. Assays were carried out in triplicate.

[4] = molecular target: T1, Porcine pancreatic phospholipase A2 (Sus scrofa, UniProt P00592); test: Pancreatic phospholipase assay; type: biochemical; conditions: read-out: ppPLA2, percentage inhibition of activity
T1 construct: purchased Sigma, St. Louis MO, USA
T1 sequence (P00592 23-146): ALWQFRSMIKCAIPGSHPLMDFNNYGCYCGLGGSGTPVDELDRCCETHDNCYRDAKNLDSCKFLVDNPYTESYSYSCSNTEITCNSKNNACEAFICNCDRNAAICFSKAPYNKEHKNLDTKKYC
Procedure: Pancreatic phospholipase assay. Porcine pancreatic phospholipase A2 suspension in 3.2M ammonium sulfate (2.9 mg protein/mL, Sigma St.Louis Mo., USA) was used. One part of well mixed enzyme suspension was added to 4 parts of buffer (10 mM Tris/HCl, pH 8.2; 10 mM CaCl2. Activity and inhibition by test compounds was then measured by the radiometric method described in Example 2 for fungal PLB activity. However, 25 μL enzyme solution was used, and the reaction time was 1 hour. These conditions result in ˜60% substrate conversion in the inhibitor-free control.

[5] = Table 7, read-out: MIC (μM) Crypto. (ATCC 90112)
[6] = Table 7, read-out: MIC (μM) C. alb. (10231)
[7] = Table 6, no visible growth after 72 h at 35° C., read-out: MIC C. neof. ATCC 90112
[8] = Table 6, no visible growth after 48 h at 35° C., read-out: MIC C. albicans ATCC 10231

| Compound | PLB assay (% inhibition) ([1]; 0.25 μM) [%] | PLB assay (% inhibition) ([1]; 2.5 μM) [%] | PLB assay (% inhibition) ([1]; 25 μM) [%] | PLB assay (% inhibition) ([1]; 250 μM) [%] | MIC [2, 5] [µM] | MIC [3, 6] [µM] | Haemolytic assay (%) (erythrocyte; 3.5 μM) | Haemolytic assay (%) (erythrocyte; 35 μM) | Haemolytic assay (%) (erythrocyte; 88 μM) | Haemolytic assay (%) (erythrocyte; 175 μM) | Haemolytic assay (%) (erythrocyte; 350 μM) | PLB, percentage inhibition of activity ([1]; 0.25 μM) [%] | PLB, percentage inhibition of activity ([1]; 2.5 μM) [%] | PLB, percentage inhibition of activity ([1]; 25 μM) [%] | PLB, percentage inhibition of activity ([1]; 250 μM) [%] | MIC [2, 7] [µM] | MIC [3, 8] [µM] | inhibition at 0.25 µM [4] [%] | inhibition at 2.5 µM [4] [%] | inhibition at 25 µM [4] [%] | also measured |
| --- | --- | --- | --- | --- | --- | --- | --- | --- | --- | --- | --- | --- | --- | --- | --- | --- | --- | --- | --- | --- | --- |
| CCCC[N+](CCCC)(CCCC)CCCCCCCCCCCC[N+](CCCC)(CCCC)CCCC [1,12-Bis-(tributylammonium)dodecane dichloride] | 0 | 6 | 65 | 85 | 2.5 | 5.5 | 0 | 0 | 0 | 5 | 100 |  |  |  |  |  |  |  |  |  | PLB assay (% inhibition) ([1]; 6.7 μM): 35%; PLB assay (% inhibition) ([1]; 12.5 μM): 56% |
| CCCC[P+](CCCC)(CCCC)CCCCCCCCCCCC[P+](CCCC)(CCCC)CCCC [Compound 1, 1,12-bis(tributylphosphonium)dodecane dibromide] | 0 | 0 | 35 | 55 | 2.5 | 8.8 | 0 | 0 | 0 | 0 | 0 | 0 | 0 | 35 | 55 | 2.5 | 8.8 | 0 | 5 | 62 | % Inhibition PLB, Secretory Enzyme ([1]; 0.25 μM): 0%; % Inhibition PLB, Secretory Enzyme ([1]; 2.5 μM): 0%; % Inhibition PLB, Secretory Enzyme ([1]; 25 μM): 35.2* %; % Inhibition PLB, Secretory Enzyme ([1]; 250 μM): 55.0* %; inhibition at 250 µM [4]: 97%; Haemolytic assay (%) (erythrocyte; 700 μM): 75% |
| CCCC[N+](CCCC)(CCCC)CCCCCCCCCCCC[N+](CCCC)(CCCC)CCCC [Compound 3, 1,12-bis(tributylammonium)do-decane dibromide] |  |  |  |  |  |  |  |  |  |  |  | 20 | 65 | 80 | 85 | 2.5 | 11 | 0 | 0 | 36 | inhibition at 250 µM [4]: 86% |
